Laboratory results from patent US20110218103A1, “Fluoroalkyl-substituted 2-amidobenzimidazoles” (BAYER CROPSCIENCE AG, priority 2010, published 2011).

Test system: Triticum aestivum (TRZAS)
Experiment: Drought stress test on crop plants, spray application in greenhouse, visual damage rating
Assay type: in vivo
Conditions: 25 g/ha, mean of three results
Procedure: Seeds of monocotyledonous and dicotyledonous crop plants were placed in sandy loam in wood-fiber pots, covered with soil and cultivated in a greenhouse under good growth conditions. The test plants were treated at the early leaf stage (BBCH10-BBCH13). To ensure uniform water supply before commencement of stress, the potted plants were supplied with the maximum amount of water immediately beforehand by dam irrigation and, after application, transferred in plastic inserts in order to prevent subsequent, excessively rapid drying. The inventive compounds, formulated in the form of wettable powders (WP), wettable granules (WG), suspension concentrates (SC) or emulsion concentrates (EC), were sprayed onto the green parts of the plants as an aqueous suspension at an equivalent water application rate of 600 l/ha with addition of 0.2% wetting agent (agrotin). Substance application was followed immediately by stress treatment of the plants (cold or drought stress). For cold stress treatment, the plants were kept under the following controlled conditions: Drought stress was induced by gradual drying out under the following conditions: “day”: 14 hours with illumination at 26° C. “night”: 10 hours without illumination at 18° C. The duration of the respective stress phases was guided mainly by the state of the untreated, stressed control plants and thus varies from crop to crop. It was ended (by re-irrigating or transfer to a greenhouse with good growth conditions) as soon as irreversible damage is observed on the untreated, stressed control plants. In the case of dicotyledonous crops, for example oilseed rape and soya, the duration of the drought stress phase was between 3 and 5 days, in the case of monocotyledonous crops, for example wheat, barley or corn, between 6 and 10 days. The duration of the cold stress phase varied between 12 and 14 days. The end of the stress phase was followed by an approx. 5-7-day recovery phase, during which the plants were once again kept under good growth conditions in a greenhouse. In order to rule out any influence of the effects observed by any fungicidal action of the test compounds, it was additionally ensured that the tests proceed without fungal infection and without infection pressure. After the recovery phase had ended, the intensities of damage were rated visually compared to untreated, unstressed controls of the same age (in the case of drought stress) or the same growth stage (in the case of cold stress). The intensity of damage was first assessed as a percentage (100%=plants have died, 0%=like control plants). These values were then used to calculate the efficacy of the test compounds (=percentage reduction in the intensity of damage as a result of substance application) by the following formula: [formula] EF: efficacy (%) DVus: damage value of the untreated, stressed control DVts: damage value of the plants treated with test compound The tables below list mean values in each case from three results of the same test. Effects of selected compounds of the formula (I) under drought stress: TRZAS=Triticum aestivum

Compound | EF (TRZAS), efficacy = percentage reduction in the intensity of damage [%]
NC(=O)c1cc(Cl)cc2[nH]c(C(F)F)nc12 [2-7] | >5
NC(=O)c1cc(F)cc2[nH]c(C(F)C(F)(F)F)nc12 (stereo not shown) [5-8] | >5
CCCCn1c(C(F)(F)F)nc2c(C(N)=O)cccc21 [1-69] | >5
COC(F)(F)c1nc2c(C(N)=O)cccc2[nH]1 [1-6, 2-[difluoro(methoxy)methyl]-1H-benzimidazole-4-carboxamide] | >5
COCCOC(F)(F)c1nc2c(C(N)=O)cccc2[nH]1 [1-52] | >5
Cc1cc(C(N)=O)c2nc(C(F)F)[nH]c2c1 [4-7] | >5

Same assay, conditions: 250 g/ha, mean of three results

Compound | EF (TRZAS), efficacy = percentage reduction in the intensity of damage [%]
CCCCS(CCCC)=NC(=O)c1cccc2[nH]c(C(F)(F)F)nc12 [1-5, N-(dibutyl-lambda^4-sulfanylidene)-2-(trifluoromethyl)-1H-benzimidazole-4-carboxamide] | >5

Test system: Zea mays (ZEAMX)
Experiment: as above
Assay type: in vivo
Conditions: 25 g/ha, mean of three results
Procedure: Seeds of monocotyledonous and dicotyledonous crop plants were placed in sandy loam in wood-fiber pots, covered with soil and cultivated in a greenhouse under good growth conditions. The test plants were treated at the early leaf stage (BBCH10-BBCH13). To ensure uniform water supply before commencement of stress, the potted plants were supplied with the maximum amount of water immediately beforehand by dam irrigation and, after application, transferred in plastic inserts in order to prevent subsequent, excessively rapid drying. The inventive compounds, formulated in the form of wettable powders (WP), wettable granules (WG), suspension concentrates (SC) or emulsion concentrates (EC), were sprayed onto the green parts of the plants as an aqueous suspension at an equivalent water application rate of 600 l/ha with addition of 0.2% wetting agent (agrotin). Substance application was followed immediately by stress treatment of the plants (cold or drought stress). For cold stress treatment, the plants were kept under the following controlled conditions: Drought stress was induced by gradual drying out under the following conditions: “day”: 14 hours with illumination at 26° C. “night”: 10 hours without illumination at 18° C. The duration of the respective stress phases was guided mainly by the state of the untreated, stressed control plants and thus varies from crop to crop. It was ended (by re-irrigating or transfer to a greenhouse with good growth conditions) as soon as irreversible damage is observed on the untreated, stressed control plants. In the case of dicotyledonous crops, for example oilseed rape and soya, the duration of the drought stress phase was between 3 and 5 days, in the case of monocotyledonous crops, for example wheat, barley or corn, between 6 and 10 days. The duration of the cold stress phase varied between 12 and 14 days. The end of the stress phase was followed by an approx. 5-7-day recovery phase, during which the plants were once again kept under good growth conditions in a greenhouse. In order to rule out any influence of the effects observed by any fungicidal action of the test compounds, it was additionally ensured that the tests proceed without fungal infection and without infection pressure. After the recovery phase had ended, the intensities of damage were rated visually compared to untreated, unstressed controls of the same age (in the case of drought stress) or the same growth stage (in the case of cold stress). The intensity of damage was first assessed as a percentage (100%=plants have died, 0%=like control plants). These values were then used to calculate the efficacy of the test compounds (=percentage reduction in the intensity of damage as a result of substance application) by the following formula: [formula] EF: efficacy (%) DVus: damage value of the untreated, stressed control DVts: damage value of the plants treated with test compound The tables below list mean values in each case from three results of the same test. Effects of selected compounds of the formula (I) under drought stress: ZEAMX=Zea mays

Compound | EF (ZEAMX), efficacy = percentage reduction in the intensity of damage [%]
COC(F)(F)c1nc2c(C(N)=O)cccc2[nH]1 [1-6, 2-[difluoro(methoxy)methyl]-1H-benzimidazole-4-carboxamide] | >5
COCCOC(F)(F)c1nc2c(C(N)=O)cccc2[nH]1 [1-52] | >5

Same assay, conditions: 50 g/ha, mean of three results

Compound | EF (ZEAMX), efficacy = percentage reduction in the intensity of damage [%]
CCCCS(CCCC)=NC(=O)c1cccc2[nH]c(C(F)(F)F)nc12 [1-5, N-(dibutyl-lambda^4-sulfanylidene)-2-(trifluoromethyl)-1H-benzimidazole-4-carboxamide] | >5

Test system: Brassica napus (BRSNS)
Experiment: as above
Assay type: in vivo
Conditions: 25 g/ha, mean of three results
Procedure: Seeds of monocotyledonous and dicotyledonous crop plants were placed in sandy loam in wood-fiber pots, covered with soil and cultivated in a greenhouse under good growth conditions. The test plants were treated at the early leaf stage (BBCH10-BBCH13). To ensure uniform water supply before commencement of stress, the potted plants were supplied with the maximum amount of water immediately beforehand by dam irrigation and, after application, transferred in plastic inserts in order to prevent subsequent, excessively rapid drying. The inventive compounds, formulated in the form of wettable powders (WP), wettable granules (WG), suspension concentrates (SC) or emulsion concentrates (EC), were sprayed onto the green parts of the plants as an aqueous suspension at an equivalent water application rate of 600 l/ha with addition of 0.2% wetting agent (agrotin). Substance application was followed immediately by stress treatment of the plants (cold or drought stress). For cold stress treatment, the plants were kept under the following controlled conditions: Drought stress was induced by gradual drying out under the following conditions: “day”: 14 hours with illumination at 26° C. “night”: 10 hours without illumination at 18° C. The duration of the respective stress phases was guided mainly by the state of the untreated, stressed control plants and thus varies from crop to crop. It was ended (by re-irrigating or transfer to a greenhouse with good growth conditions) as soon as irreversible damage is observed on the untreated, stressed control plants. In the case of dicotyledonous crops, for example oilseed rape and soya, the duration of the drought stress phase was between 3 and 5 days, in the case of monocotyledonous crops, for example wheat, barley or corn, between 6 and 10 days. The duration of the cold stress phase varied between 12 and 14 days. The end of the stress phase was followed by an approx. 5-7-day recovery phase, during which the plants were once again kept under good growth conditions in a greenhouse. In order to rule out any influence of the effects observed by any fungicidal action of the test compounds, it was additionally ensured that the tests proceed without fungal infection and without infection pressure. After the recovery phase had ended, the intensities of damage were rated visually compared to untreated, unstressed controls of the same age (in the case of drought stress) or the same growth stage (in the case of cold stress). The intensity of damage was first assessed as a percentage (100%=plants have died, 0%=like control plants). These values were then used to calculate the efficacy of the test compounds (=percentage reduction in the intensity of damage as a result of substance application) by the following formula: [formula] EF: efficacy (%) DVus: damage value of the untreated, stressed control DVts: damage value of the plants treated with test compound The tables below list mean values in each case from three results of the same test. Effects of selected compounds of the formula (I) under drought stress: BRSNS=Brassica napus

Compound | EF (BRSNS), efficacy = percentage reduction in the intensity of damage [%]
CCCCS(CCCC)=NC(=O)c1cccc2[nH]c(C(F)(F)F)nc12 [1-5, N-(dibutyl-lambda^4-sulfanylidene)-2-(trifluoromethyl)-1H-benzimidazole-4-carboxamide] | >5
NC(=O)c1cc(Cl)cc2[nH]c(C(F)F)nc12 [2-7] | >5
CCCCn1c(C(F)(F)F)nc2c(C(N)=O)cccc21 [1-69] | >5
COC(F)(F)c1nc2c(C(N)=O)cccc2[nH]1 [1-6, 2-[difluoro(methoxy)methyl]-1H-benzimidazole-4-carboxamide] | >5
COCCOC(F)(F)c1nc2c(C(N)=O)cccc2[nH]1 [1-52] | >5
Cc1cc(C(N)=O)c2nc(C(F)F)[nH]c2c1 [4-7] | >5

Same assay, conditions: 250 g/ha, mean of three results

Compound | EF (BRSNS), efficacy = percentage reduction in the intensity of damage [%]
NC(=O)c1cc(F)cc2[nH]c(C(F)C(F)(F)F)nc12 (stereo not shown) [5-8] | >5

Test system: Hordeum vulgare (HORVS)
Experiment: as above
Assay type: in vivo
Conditions: 25 g/ha, mean of three results
Procedure: Seeds of monocotyledonous and dicotyledonous crop plants were placed in sandy loam in wood-fiber pots, covered with soil and cultivated in a greenhouse under good growth conditions. The test plants were treated at the early leaf stage (BBCH10-BBCH13). To ensure uniform water supply before commencement of stress, the potted plants were supplied with the maximum amount of water immediately beforehand by dam irrigation and, after application, transferred in plastic inserts in order to prevent subsequent, excessively rapid drying. The inventive compounds, formulated in the form of wettable powders (WP), wettable granules (WG), suspension concentrates (SC) or emulsion concentrates (EC), were sprayed onto the green parts of the plants as an aqueous suspension at an equivalent water application rate of 600 l/ha with addition of 0.2% wetting agent (agrotin). Substance application was followed immediately by stress treatment of the plants (cold or drought stress). For cold stress treatment, the plants were kept under the following controlled conditions: Drought stress was induced by gradual drying out under the following conditions: “day”: 14 hours with illumination at 26° C. “night”: 10 hours without illumination at 18° C. The duration of the respective stress phases was guided mainly by the state of the untreated, stressed control plants and thus varies from crop to crop. It was ended (by re-irrigating or transfer to a greenhouse with good growth conditions) as soon as irreversible damage is observed on the untreated, stressed control plants. In the case of dicotyledonous crops, for example oilseed rape and soya, the duration of the drought stress phase was between 3 and 5 days, in the case of monocotyledonous crops, for example wheat, barley or corn, between 6 and 10 days. The duration of the cold stress phase varied between 12 and 14 days. The end of the stress phase was followed by an approx. 5-7-day recovery phase, during which the plants were once again kept under good growth conditions in a greenhouse. In order to rule out any influence of the effects observed by any fungicidal action of the test compounds, it was additionally ensured that the tests proceed without fungal infection and without infection pressure. After the recovery phase had ended, the intensities of damage were rated visually compared to untreated, unstressed controls of the same age (in the case of drought stress) or the same growth stage (in the case of cold stress). The intensity of damage was first assessed as a percentage (100%=plants have died, 0%=like control plants). These values were then used to calculate the efficacy of the test compounds (=percentage reduction in the intensity of damage as a result of substance application) by the following formula: [formula] EF: efficacy (%) DVus: damage value of the untreated, stressed control DVts: damage value of the plants treated with test compound The tables below list mean values in each case from three results of the same test. Effects of selected compounds of the formula (I) under drought stress: HORVS=Hordeum vulgare

Compound | EF (HORVS), efficacy = percentage reduction in the intensity of damage [%]
NC(=O)c1cc(Cl)cc2[nH]c(C(F)F)nc12 [2-7] | >5
Cc1cc(C(N)=O)c2nc(C(F)F)[nH]c2c1 [4-7] | >5
